Experimental findings from patent US6344439B1, “Agents for promoting bone formation” (priority 1995, dated 2002) are described below.

Data set [1] deals with osteoblasts of rat fetal calvaria. The class given is cell-based. To be noted: for Alkaline phosphatase activity: mean ± SD n=4; for Effect on alkaline phosphatase activity (in words): at 10^−8M.
Data set [2] shares this test system. As to conditions: for Calcified area / No. of bone tuberculum: mean ± SD n=4; for No. of bone tuberculum: Tables 1-2 experiment (non-treated 146.5 ± 10.9).
[3] abbreviates: 10^−8M, Table 1 experiment (non-treated 0.044 ± 0.014).
[4] abbreviates: 10^−8M, Table 3 experiment (non-treated 0.084 ± 0.008).
The mark [5] stands for this setting: 10^−8M, Table 3 experiment (non-treated 4.46 ± 0.83).

Like-named read-outs stand apart in the source and are kept apart here.

As to `C[C@@H]1C[C@H]2[C@@H]3CCC4=CC(=O)C=C[C@]4(C)[C@@]3(F)[C@@H](O)C[C@]2(C)[C@@]1(O)C(=O)CO` [Dexamethasone, reference compound], the Alkaline phosphatase activity came out at 0.181 ± 0.018 μM/min/well in data set [1] (setting [3]) and 0.143 ± 0.015 μM/min/well in data set [1] (setting [4]). Moreover, the Calcified area in data set [2] (setting [5]) is reported as 13.82 ± 1.20 mm^2/well; in data set [2] (10^−8M, Table 4 experiment (non-treated 2.56 ± 0.11)), 12.17 ± 1.05 mm^2/well. The “No. of bone tuberculum” value in data set [2] (10^−8M) turned out to be 307.3 ± 34.1 per well.

Turning to “Gly-Arg-Gly-Asp-Ser (GRGDS) [reference compound]”, the “No. of bone tuberculum” value in data set [2] (10^−4M) was 168.3 ± 17.1 per well; in data set [2] (10^−6M), 166.5 ± 10.6 per well. Further, the “Effect on calcification (in words)” value is recorded as “completely prevent” in data set [2] (at 10^−4M) and “promote” in data set [2] (at 10^−6M). Moreover, in data set [2] (at 10^−6M and 10^−4M ("these concentrations")), the “Effect on the number of bone tuberculum (in words)” value is listed as “tendency to be increased”.

With Kistrin, the Alkaline phosphatase activity is 0.085 ± 0.009 μM/min/well in data set [1] (10^−5M, Table 3 experiment (non-treated 0.084 ± 0.008)); 0.040 ± 0.003 μM/min/well in data set [1] (10^−6M, Table 1 experiment (non-treated 0.044 ± 0.014)); 0.119 ± 0.008 μM/min/well in data set [1] (10^−6M, Table 3 experiment (non-treated 0.084 ± 0.008)); 0.051 ± 0.007 μM/min/well in data set [1] (10^−7M, Table 1 experiment (non-treated 0.044 ± 0.014)); 0.133 ± 0.006 μM/min/well in data set [1] (10^−7M, Table 3 experiment (non-treated 0.084 ± 0.008)); 0.067 ± 0.005 μM/min/well in data set [1] (setting [3]). Moreover, the Alkaline phosphatase activity in data set [1] (setting [4]) amounted to 0.126 ± 0.006 μM/min/well; in data set [1] (10^−9M, Table 1 experiment (non-treated 0.044 ± 0.014)) it was 0.051 ± 0.008 μM/min/well. The “Effect on alkaline phosphatase activity (in words)” value in data set [1] is listed as “promote”; in data set [1] (listed as kistrin) it was “Promoted”. For the same compound, the Calcified area is given as 4.54 ± 0.88 mm^2/well in data set [2] (10^−5M, Table 3 experiment (non-treated 4.46 ± 0.83)); 7.93 ± 1.37 mm^2/well in data set [2] (10^−6M, Table 3 experiment (non-treated 4.46 ± 0.83)); 11.25 ± 1.04 mm^2/well in data set [2] (10^−7M, Table 3 experiment (non-treated 4.46 ± 0.83)); 9.87 ± 1.04 mm^2/well in data set [2] (setting [5]). Further, the “No. of bone tuberculum” value in data set [2] (10^−6M) was determined as 147.8 ± 14.2 per well; in data set [2] (10^−7M), 189.5 ± 16.3 per well; in data set [2] (10^−8M) it was 161.8 ± 19.2 per well; in data set [2] (10^−9M), 153.8 ± 12.3 per well. In addition, the “Effect on calcification (in words)” value in data set [2] (at 10^−6M) was “prevented completely”; in data set [2] (at 10^−7 and 10^−8M), “promote”. Moreover, the “Effect on the number of bone tuberculum (in words)” value in data set [2] (at 10^−6M) is “not observed to affect”; in data set [2] (at 10^−7 and 10^−8M) it was “promote”.
